Legend:
Type in all cases: in vivo
[1] = tested on: ERYSIPHE GRAMINIS (BARLEY); assay: Foliar fungal disease test on plants: Erysiphe graminis on barley; conditions: 100 ppm active ingredient spray and root drench approximately 40 ppm a.i./dry soil, plants inoculated 24 hours before treatment
Description: (§1) The compounds were tested against a variety of foliar fungal diseases of plants. The technique employed was as follows. The plants were grown in John Innes Potting Compost (No 1 or 2) in 4 cm diameter minipots. A layer of fine sand was placed at the bottom of the pots containing the dicotyledonous plants to facilitate uptake of test compound by the roots. The test compounds were formulated either by bead milling with aqueous Dispersol T or as a solution in acetone or acetone/ethanol which was diluted to the required concentration immediately before use. For the foliage diseases, suspensions (100 ppm active ingredient) were sprayed […]. Exceptions to this were the tests on Botrytis cinerea and Venturia inaequalis. The sprays were applied to maximum retention and the root drenches to a final concentration equivalent to approximately 40 ppm a.i./dry soil. Tween 20, to give a final concentration of 0.05%, was added when the sprays were applied to cereals. For most of the tests the compound was applied to the soil (roots) and to the foliage (by spraying) one or two days before the plant was inoculated with the diseases. An exception was the test on Erysiphe graminis in which the plants were inoculated 24 hours before treatment. After inoculation, the plants were put into an appropriate environment to allow infection to take place and then incubated until the disease was ready for assessment. The period between inoculation and assessment varied from four to fourteen days according to the disease and environment. The disease control was recorded by the following grading:- • 4 = no disease • 3 = trace - 5% of disease on untreated plants • 2 = 6-25% of disease on untreated plants • 1 = 26-59% of disease on untreated plants • 0 = 60-100% of disease on untreated plants

[2] = tested on: CERCOSPORA ARACHIDICOLA (PEANUT); assay: Foliar fungal disease test on plants: Cercospora arachidicola on peanut; conditions: 100 ppm active ingredient spray and root drench approximately 40 ppm a.i./dry soil, one or two days before inoculation
Description: as §1

[3] = tested on: VENTURIA INEQUALIS (APPLE); assay: Foliar fungal disease test on plants: Venturia inaequalis on apple; conditions: 100 ppm active ingredient, named as an exception to the usual way of application, treatment one or two days before inoculation
Description: as §1

[4] = tested on: PUCCINIA RECONDITA (WHEAT); assay: Foliar fungal disease test on plants: Puccinia recondita on wheat; conditions: 100 ppm active ingredient spray and root drench approximately 40 ppm a.i./dry soil, one or two days before inoculation, assessed four to fourteen days after inoculation
Description: as §1

BOTRYTIS CINEREA (GRAPE) = assay: Foliar fungal disease test on plants: Botrytis cinerea on grape; conditions: 100 ppm active ingredient, named as an exception to the usual way of application, treatment one or two days before inoculation
Description: as §1, with “For most of the tests the compound was applied to the soil (roots) and to the foliage (by spraying) one or two days before the plant was inoculated with the diseases. An exception was the test on Erysiphe graminis in which the plants were inoculated 24 hours before treatment.” left out, “The period between inoculation and assessment varied from four to fourteen days according to the disease and environment.” left out

SMILES	disease control grading, ERYSIPHE GRAMINIS (BARLEY) [1]	disease control grading, CERCOSPORA ARACHIDICOLA (PEANUT) [2]	disease control grading, VENTURIA INEQUALIS (APPLE) [3]	disease control grading, PUCCINIA RECONDITA (WHEAT) [4]	disease control grading, BOTRYTIS CINEREA (GRAPE) (BOTRYTIS CINEREA (GRAPE))
OC(Cn1cncn1)(c1ccccc1)c1cccs1 (centres unmarked) [Compound 1A, 1-(1,2,4-Triazol-1-yl)-2-phenyl-2-(2-thienyl)ethan-2-ol]	4 (4 = no disease)	0 (0 = 60-100% of disease on untreated plants)	0 (0 = 60-100% of disease on untreated plants)	3 (3 = trace - 5% of disease on untreated plants)	0 (0 = 60-100% of disease on untreated plants)
OC(Cn1cncn1)(c1ccc(Cl)s1)c1ccc(Cl)cc1Cl (stereo not drawn) [Compound 11A, 1-(1,2,4-Triazol-l-yl)-2-(2,4-dichloroplienyl)-2-(5-chlorothien-2-yl) ethan-2-ol]	4 (4 = no disease)	3 (3 = trace - 5% of disease on untreated plants)	4 (4 = no disease)	4 (4 = no disease)	–
OC(Cn1cnnc1)(c1ccc(Cl)s1)c1ccc(Cl)cc1Cl (centres unmarked) [Compound 11B, 1-(1,2,4-Triazol-4-yl)-2-(2,4-dichlorophenyl)-2-(5-chloro-thlen-2-yl) ethan-2-ol]	4 (4 = no disease)	1 (1 = 26-59% of disease on untreated plants)	1 (1 = 26-59% of disease on untreated plants)	4 (4 = no disease)	0 (0 = 60-100% of disease on untreated plants)

Source: patent publication EP0046337A2, “Triazole compounds, a process for preparing them, their use as plant and pharmaceutical fungicides and as plant growth regulators and compositions containing them” (IMPERIAL CHEMICAL INDUSTRIES PLC, priority 1980, dated 1982)
